Values after ≈ are worked out from the molar mass of the structure shown. Values joined by “and” are separate entries in the source; they are usually repeats but may differ in a detail not shown here. Equal values may be shown once.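 96-well plates; 48 h exposure; 5 concentrations. Endpoints by linear interpolation between flanking doses. Not reached: highest tested concentration assigned. The concentration for 50% growth inhibition is given as GI50. TGI denotes the concentration required for complete inhibition of growth.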
What was measured:
Experiment in all cases: growth of human tumour cells (NCI), 48 h
HCT-116 colon = system: HCT-116 colon
MDA-MB-231 breast = system: MDA-MB-231 breast
SW-620 colon = system: SW-620 colon
CCRF-CEM leukemia = system: CCRF-CEM leukemia
LOX IMVI melanoma = system: LOX IMVI melanoma
SNB-19 CNS = system: SNB-19 CNS
NCI-H23 lung = system: NCI-H23 lung
UACC-62 melanoma = system: UACC-62 melanoma
CAKI-1 renal = system: CAKI-1 renal
MDA-N = system: MDA-N

Row | Structure (SMILES) | TGI (HCT-116 colon) | TGI (MDA-MB-231 breast) | TGI (SW-620 colon) | TGI (CCRF-CEM leukemia) | TGI (LOX IMVI melanoma) | TGI (SNB-19 CNS) | TGI (NCI-H23 lung) | TGI (UACC-62 melanoma) | TGI (CAKI-1 renal) | GI50 (SW-620 colon) | GI50 (CCRF-CEM leukemia) | GI50 (NCI-H23 lung) | GI50 (CAKI-1 renal) | TGI (MDA-N)
1 | COc1cc2c(c(O)c1OC)C(O)C1CCC(=O)N1C2c1ccc2c(c1)OCO2 (stereo not given) | > 100 µM | > 100 µM | > 100 µM | > 100 µM | > 100 µM | > 100 µM | > 100 µM | > 100 µM | > 100 µM |  |  |  |  | 
2 | Cc1c2ccncc2c(C)c2c1[nH]c1ccc(O)cc12 |  |  | 3.94 µg/mL | 0.31 µg/mL |  |  | 84.1 mM and 0.0172 µg/mL |  | 0.0686 µg/mL | 0.0267 µg/mL (≈ 0.102 µM) | 0.0158 µg/mL (≈ 0.06 µM) | 11800 µM | 0.0137 µg/mL (≈ 0.0522 µM) | 
3 | CCn1c(=O)c2nc(SC)sc2n(-c2ccccc2)c1=S | > 100 µM | > 100 µM | > 100 µM | > 100 µM | > 100 µM | > 100 µM | > 100 µM | 97.6 µM |  |  |  |  |  | > 100 µM
4 | O=C(O)COc1c(Cl)cc(Cl)c(C(c2c(Cl)cc(Cl)c(OCC(=O)O)c2Cl)C(Cl)(Cl)Cl)c1Cl | > 100 µM | 61.3 µM | > 100 µM |  | > 100 µM | > 100 µM | 62.3 µM | 37.9 µM | > 100 µM |  |  |  |  | > 100 µM
5 | Cc1cc2c3ccccc3n3c2c2c1OC1(C)CCC(C2C1)C3(C)C (stereo not given) | > 25 µM |  | > 25 µM | > 25 µM | > 25 µM | > 25 µM |  | > 25 µM |  |  |  |  |  | 
6 | COc1ccc(N2C(=O)[C@@H]3[C@@H]4CC(C)CC[C@@H]4c4c([nH]c5ccccc45)[C@@H]3C2=O)cc1 (stereo not given in full) | 20 µM |  | 47.7 µM | > 100 µM | > 87.6 µM | 29.6 µM | > 47.5 µM | 40.8 µM | > 72.9 µM |  |  |  |  | 
7 | Cc1ccc(-c2ccc3c(c2)Sc2ccccc2O3)n1C | > 100 µM | > 100 µM | > 100 µM | 3.95 µM | > 100 µM | > 100 µM | > 100 µM |  | > 73.1 µM |  |  |  |  | 
8 | O=C1c2ccccc2CC12Cc1ccc3c(c1C2=O)CCCC3 (stereo not given) | > 100 µM | 86 µM | > 100 µM | > 100 µM | > 100 µM | > 100 µM |  | > 100 µM |  |  |  |  |  | > 100 µM
9 | COC(=O)CC(=O)OC1C[C@@H]2CCC3C(C)(C)CCC[C@]3(C)C23CC[C@@]1(C)C3 (stereo not given in full) | 31.4 µM |  | 32.1 µM | > 100 µM | 32.3 µM | 31.6 µM | 33.5 µM | 30.7 µM | 30.5 µM |  |  |  |  | 
10 | CCOC(=O)c1c(NS(=O)(=O)c2ccccc2)sc2c1CCCC2 | > 100 µM | > 100 µM |  | > 100 µM |  | > 100 µM | > 100 µM | > 100 µM | > 100 µM |  |  |  |  | > 100 µM
11 | CN(C)CCCn1c(-c2ccc(Br)cc2)csc1=Nc1ccccc1 |  | > 100 µM |  | > 100 µM |  | 31.6 µM | 27.8 µM | 29.6 µM | 41 µM |  |  |  |  | > 100 µM
12 | CCN(CC)C(=O)Cc1[nH][nH]c(=O)c1C(=O)N(CC)CC | > 100 µM |  | > 100 µM | > 100 µM | > 100 µM | > 100 µM | > 100 µM | > 100 µM |  |  |  |  |  | 

Source: PubChem BioAssay (NCI)
